Data on three molecules can be found in US20210275514A1, “COMPOUNDS FOR USE IN TREATING KIDNEY DISORDERS” (Hoffmann-La Roche Inc., priority 2018, published 2021).

SMILES strings stand for the structures. Entries after “also recorded” stand apart in the source; their conditions may differ.

Data set [1] deals with ADR-induced nephropathy in Balb/c mice. Nature of the data set: Adriamycin-induced kidney damage, second experiment, 28 days. The class given is in vivo, mouse. Conditions: for Albuminuria / Body weight loss: 4 weeks after ADR; for TOTAL CHOL (blood) / TRIGLYCERIDES (blood): 28 days after ADR injection. How it is done:
A second experiment was repeated to confirm the improvement of renal function attained with the doses of Cpd A and G in the first experiment. Briefly, 30 female Balb/c mice of 8 weeks age were injected with 12 mg/Kg of ADR by via tail vein and the mice were randomly distributed into 5 groups of 6 animals each. Animals were given vehicle or compounds by oral gavage once daily for 28 days starting one day after ADR injection. The following doses of compounds were tested: Cpd C, 10 mg/Kg/day; Cpd A, 30 mg/Kg/day and Cpd G, 30 mg/Kg/day and 100 mg/Kg/day. A group of 5 animals that received saline solution via tail vein injection and were treated with vehicle were used as healthy baseline control. Body weight measurements and spot urine collection was done once a week. Animals were sacrificed 28 days after ADR injection (FIG. 2).
(§1) Spot urine samples were collected for all mice at baseline and time of sacrifice. Urinary albumin and creatinine were determined using an albumin ELISA kit (Bethyl laboratories) and a colorimetric assay for creatinine determination (Stanbio). Albuminuria was calculated and expressed as μg of albumin divided by mg of creatinine. For diabetic mouse model, weight and glycaemia were measured on a bi-weekly basis.
At time of sacrifice blood was collected in heparinized tubes and mice were perfused via left ventricle perfusion with isotonic saline solution. Kidney cortex was carefully excised and further sectioned for the fallowing analysis: determination of podocyte number, lipid droplet staining, electron microscopy (EM), renal lipids content assays, PAS& HE staining for pathological evaluation.
(§2) Lipid droplet staining Filtered Oil-Red O-Isopropanol solution (Electron Microscopy Science, PA) was diluted with water (6:4). 4 μm kidney sections were incubated with 100 μl freshly prepared Oil-Red O solution (ORO) for 15 minutes and counterstained with Hematoxylin Harris Hg Free (VWR, PA) to detect lipid deposition. Glomeruli staining was evaluated using a light microscope (Olympus BX 41, Tokyo, Japan).
(§3) Renal lipids species assays. Kidney cortex sections were snap frozen and utilized for lipid extraction and cholesterol content determination. The tissue was homogenized in 2 mM potassium phosphate buffer in a glass douncer on ice. Lipids in 100 μl homogenate (˜5-10 mg tissue) were extracted with 1 ml hexane:isopropanol (3:2) for two sequential 30-minute extractions. The solvent containing lipids was then dried in Nitrogen atmosphere. Lipids were then reconstituted using isopropanol: NP-40 (9:1) and cholesterol content was quantified using the Amplex red cholesterol assay kit (Invitrogen) according to the manufacturers protocol. Triglycerides in lipid extracts were assayed with a colorimetric kit according to manufacturer's instructions (Cayman). Total cholesterol and cholesterol esters were assayed using an enzymatic fluorometric method. For total cholesterol renal lipid extracts were diluted in assay buffer (100 mM potassium phosphate, 50 mM NaCl, 5 mM cholic acid, 0.1% […], pH 7.4) and incubated with same buffer supplemented with a final concentration of 1 U/ml cholesterol oxidase, 1 U/ml cholesterol esterase, 1 U/ml horseradish peroxidase, and 75 μM Amplex Red. The reactions were incubated at 37° C. for 30 min in a black opaque 96 well plate (Greiner) and fluorescence was measured in a microplate reader (Spectramax i3X, Molecular Devices) using 530 nm excitation and 580 emission.
(§4) Cholesterol esters were assayed using a direct method described by Mizoguchi et al (Mizoguchi, 2004). Briefly 150 μl of FC decomposition reagent (45 U/ml bovine catalase and 1 U/ml cholesterol oxidase, in assay buffer described above) was added to 25 μl of sample containing up to 1 mM total cholesterol. Free cholesterol was allowed to decompose overnight at 37° C. and then 75 μl of 4× cholesterol ester detection reagent (1 U/ml cholesterol oxidase, 4 U/ml cholesterol esterase, 24 U/ml horseradish peroxidase, 300 μM Amplex Red) was added. […]

Data set [2] deals with differentiated human podocytes. The experiment in a line: Compound cytotoxicity in differentiated human podocytes (ApoTox-Glo Triplex Assay). The data set is classed as cell-based. Particulars: 18 h. The protocol:
Podocytes were seeded in 96-well plates (Greiner) and allowed to differentiate for 14 days. Cells were then washed with PBS, and incubated with media (RPMI-0.2% BSA) with or without vehicle and compounds for 18 h at 37° C., 5% CO2. Compound concentrations tested were 1 μM, 5 μM, 10 μM and 20 μM. Vehicle (DMSO) final concentration was 0.1%. All treatments were done in duplicates. Cytotoxicity was assayed using ApoTox-Glo Triplex Assay (Promega) following manufacturer's instructions. Briefly, cell-permeant (GF-AFC) and cell impermeant (bis-AAF-R110) peptide substrates were diluted and added to all wells and the cells were incubated at 37° C., 5% CO2 for 1 hr. A set of cells were treated with saponin (2 mg/ml) as a positive control of cell cytotoxicity. Cell viability and cytotoxicity fluorescence signals were measured at 400 nm/505 nm and 485 nm/520 nm Excitation/Emission, respectively using a fluorescence microplate reader (SpectraMax i3). RFU signal obtained with the cell toxicity substrate was normalized to the one obtained with the viable substrate in the same well to eliminate the effect of different cell numbers per well.

The next data set deals with 129 Col4a3 KO mice. Nature of the data set: Alport mouse model, treatment from 4 weeks of age. The class given is in vivo. How it is done: 129 Col4a3^tm1/Dec/J mice were purchased from Jackson Labs and bred to generate Col4a3 KO mice. Mice were genotyped and selected using the primers: F ([…]), R ([…]) and Rm ([…]) in a PCR reaction (94 C for 5 min, followed by 30 cycles of 30 sec at 95 C, 15 sec at 60 C and 30 sec 72 C, and 1 min at 72 C). 129 Col4A3-KO mice were divided into two groups of 5 mice (males and females) each. At the age of 4 weeks, mice started receiving either vehicle or Cpd G (100 mg/Kg) by oral gavage once daily for 4 weeks. Body weight measurements and spot urine collection was performed once a week. Animals were sacrificed at the end of the treatment at the age of 8 weeks. A late study was also performed to evaluate if treatment of Col4A3-KO mice at time of established disease would prolong mice survival. In this study, mice were treated with Cpd G (100 mg/Kg/day) by daily oral gavage starting at 6 weeks of age and survival was assessed.
as §1, §2, §3
as §4, with “added. Reaction was incubated at 37° C. for 30 min and fluorescence was measured as described above for total cholesterol. 1 mM of cholesterol and 5 μM of cholesterol oleate standards were included as internal controls to validate assay sensibility and specificity.” for “added.”

Where [3] appears, read: concentrations above 10 uM, FIG. 3.
[4] abbreviates: 100 mg/Kg once daily, 4 weeks from age 4 weeks, vs vehicle.

Turning to `O=C(N[C@@H]1CCCC[C@H]1O)c1ccc(OCC(F)(F)F)c(-c2ccc(Cl)c(Cl)c2)n1` [Cpd A, 6-(3,4-Dichlorophenyl)-N-[(1R,2R)-2-hydroxycyclohexyl]-5-(2,2,2-trifluoroethoxy)pyridine-2-carboxamide], in data set [1] (30 mg/Kg once daily), the Albuminuria result is reported as “significantly reduce; also recorded: reduced” and the Body weight loss result was “significantly reduce; also recorded: reduced”. In addition, in data set [1] (30 mg/Kg), the “TOTAL CHOL (blood)” value is 104.0 ± 31.6 mg/dL and the TRIGLYCERIDES (blood) was 107 ± 23.9 mg/dL. In addition, in data set [2] (20 μM), the Cytotoxicity entry is recorded as “significant toxicity”. Further, the Cytotoxicity result in data set [2] (setting [3]) is “significant toxicity”.
On to `Cc1oc(-c2cccc(C(F)(F)F)c2)nc1Cn1c(C)cc2cc(C(O)(C(F)(F)F)C(F)(F)F)ccc21` [Cpd C, 1,1,1,3,3,3-Hexafluoro-2-{2-methyl-1-[5-methyl-2-(3-trifluoromethyl-phenyl)-oxazol-4-ylmethyl]-1H-indol-5-yl}-propan-2-ol, reference compound], for which, in data set [1] (10 mg/Kg), the “TOTAL CHOL (blood)” value was 119.8 ± 19.9 mg/dL and the TRIGLYCERIDES (blood) is 110 ± 53.5 mg/dL. In data set [2] (20 μM), the Cytotoxicity result is given as “significant toxicity”. Further, the Cytotoxicity result in data set [2] (setting [3]) is listed as “significant toxicity”.
For the molecule `O=C(N[C@@H]1CCCC[C@H]1O)c1cnc(OCC(F)(F)F)c(-c2ccc(Cl)c(Cl)c2)c1` [Cpd G, 5-(3,4-dichloro-phenyl)-N-((1R,2R)-2-hydroxy-cyclohexyl)-6-(2,2,2-trifluoro-ethoxy)-nicotinamide], the “progression to ESRD” value in the data set with 129 Col4a3 KO mice (100 mg/Kg once daily, 4 weeks from age 4 weeks) was “delays progression to end stage renal disease; also recorded: delayed progression to ESRD”. For the same molecule, in the data set with 129 Col4a3 KO mice (setting [4]), the Albuminuria entry is listed as “significantly less”, the BUN result was “significantly less”, the Body weight loss result is reported as “lost less weight” and the “mesangial expansion (PAS-stained kidney sections)” value is reported as “significantly less mesangial expansion”. Further, in the data set with 129 Col4a3 KO mice (setting [4]), the serum creatinine entry was “significantly less”. Moreover, in the data set with 129 Col4a3 KO mice (8 week old mice, 28 days treatment), the “lipid accumulation in kidney cortex sections (Oil-red O staining)” value is “reduced”. For the same molecule, the “cholesterol ester in kidneys” value with 129 Col4a3 KO mice (8 week old mice, 28 days treatment, normalized to total protein) is “reduces esterified cholesterol accumulation; also recorded: significantly reduced”. Besides, in data set [1] (30 mg/Kg), the “TOTAL CHOL (blood)” value is on record as 112.0 ± 13.6 mg/dL and the TRIGLYCERIDES (blood) turned out to be 120 ± 18.8 mg/dL. For the same molecule, in data set [1] (100 mg/Kg once daily), the Albuminuria entry was “significantly reduce; also recorded: reduced” and the Body weight loss result is reported as “significantly reduce; also recorded: reduced”. Also, in data set [1] (100 mg/Kg, 28 days), the “deposition of lipid droplets in the kidneys (Oil Red O staining)” value was “significantly reduced”. In addition, in data set [1] (100 mg/Kg), the “TOTAL CHOL (blood)” value was 101.1 ± 12.8 mg/dL and the TRIGLYCERIDES (blood) is 121 ± 19.3 mg/dL. For the same molecule, in data set [1] (100 mg/Kg/day, 4 weeks), the “global glomerular sclerosis (blind pathological study of kidney cortex)” value is on record as “reduction”, the interstitial inflammation entry is listed as “reduction”, the podocyte hyperplasia entry is recorded as “reduction” and the podocyte hypertrophy entry is “reduction”. In addition, in data set [1] (100 mg/Kg/day, 4 weeks), the segmental glomerular sclerosis result was “reduction” and the tubular microcysts result is on record as “reduction”. The “esterified cholesterol content in kidney cortex” value in data set [1] (28 days, normalized to total protein) is on record as “reduces accumulation of esterified cholesterol; also recorded: significantly reduced”. In data set [1] (optimal dose (100 mg/Kg), 3rd and 4th week of treatment), the physical appearance result was “better physical appearance”.
